Laboratory results published in patent US8841343B2, “Composition for repelling mosquitoes” (Bio & Hnt, Inc., priority 2006, dated 2014).
Several values for one entry are separate records, joined by “and”; a condition that tells them apart may be missing. Identical values can stand only once.

System: Aedes aegypti
Experiment: Examination of repellent activity using skin test (treated human forearm in cage of about 100 mated female mosquitoes)
Type: in vivo
Details: for time for which repellent efficiency of 100% was shown: at the level of 0.25 mg/cm^3
Text: Citronellic acid and geranic acid, which are used in the present invention, are commercially available or can directly be synthesized. In this embodiment, products of Aldrich Co. (product names are respectively Citronellic acid and Geranic acid) were purchased and used as citronellic acid and geranic acid. Purities of the above two compounds were examined using a gas chromatograph (GC) and a gas chromatograph-mass spectrometry (GC-MS). The compounds having purity of 99.5% or greater were only used. Respective ingredients of the above compounds were added to isopropyl alcohol of 91% to make test samples consisting of a solution in the concentration of 0.5 to 50%. The samples were used for mosquito repellent efficacy experiments.
The test samples manufactured as above underwent repellent effective experiments with respect to Aedes which is a main mosquito group attacking human.
In this embodiment, Aedes aegypti was used as test mosquitoes. The Aedes aegypti was supplied from Korea Research Institute of Bioscience and Biotechnology and reared indoor from generation to generation.
The larvae of the Aedes aegypti were reared in a plastic container of 22×14×7 cm containing distilled water with small amount of one-to-one mixture of chicken feed and yeast. Fresh mosquito pupae were transferred into a paper cup containing water and then placed in a transparent rearing cage to emerge as adults. Here, the rearing cage was constructed with metal net. Males and females of the freshly emerged mosquitoes were transferred to a rearing cage at one-to-one ratio, and left for two or three days for mating. The female mosquitoes were then used for repellency tests. Eight percent (8%) sugar water was supplied for the adult mosquitoes. The following rearing conditions were maintained: light condition of 16 h:8 h (day:night), temperature of 27±2° C., and relative humidity of 80±10%.
In order to examine effectiveness of the mosquito repellent of the prepared sample solutions, one (1) ml of a sample solution was uniformly applied, using a metal rod, on a forearm of a volunteer human test subject between wrist and elbow. Thereafter, the arm treated with the test solution was inserted in a bioassay cage, constructed with Plexiglass of 50×50×50 cm containing approximately 100 mated female mosquitoes. The number of mosquitoes trying to bite was recorded for three minutes in every thirty minutes for up to 4 hours or in every hour for up to 12 hours. The time required to get the arm bitten by two cumulative mosquitoes was regarded as effective repellency duration. A net window of 40×40 cm was present at each side and top of the Plexiglass bioassay cage to allow air ventilation. A 15×15 cm hole was prepared at the front side of the Plexiglass bioassay cage and a long net sleeve was attached to the hole so that the test arm could be put into the cage for repellency test.
At the beginning of each repellency test, an arm treated with no solvent was placed in the bioassay cage containing mosquitoes, in order to examine blood feeding activity of the mated female test mosquitoes. The repellency tests with the test solutions were carried out only when the arm was bitten by at least two mosquitoes for initial three minutes.
Repellent activity against Aedes was examined in accordance with the aforementioned method using the samples which respectively contain citronellic acid and geranic acid. Also, mosquito repellent activity was measured with solutions which contain DEET and Picadirin, wherein the DEET and Picadirin are commercially available mosquito repellents which are currently recommended by the Center for Disease Control of the United States.
In Table 4 to Table 6, the repellent efficiency was calculated using the following Equation 1.

[1] = 10% (0.25 mg/cm^3), 120 minutes
[2] = 10% (0.25 mg/cm^3), 150 minutes
[3] = 10% (0.25 mg/cm^3), 180 minutes
[4] = 10% (0.25 mg/cm^3), 210 minutes
[5] = 10% (0.25 mg/cm^3), 240 minutes
[6] = concentration 10% (0.25 mg/cm^3), time until two cumulative bites, maximum measurement time 240 minutes

Row | Structure (SMILES) | Repellent efficiency (%) per time (minutes) (10% (0.25 mg/cm^3), 30 minutes) [%] | Repellent efficiency (%) per time (minutes) (10% (0.25 mg/cm^3), 60 minutes) [%] | Repellent efficiency (%) per time (minutes) (10% (0.25 mg/cm^3), 90 minutes) [%] | Repellent efficiency (%) per time (minutes) [1] [%] | Repellent efficiency (%) per time (minutes) [2] [%] | Repellent efficiency (%) per time (minutes) [3] [%] | Repellent efficiency (%) per time (minutes) [4] [%] | Repellent efficiency (%) per time (minutes) [5] [%] | time for which repellent efficiency of 100% was shown | Effective repellency duration (minute) (mean ± standard deviation) [6] | Effective repellency duration (minute) (mean ± standard deviation) (concentration 10% (0.25 mg/cm^3), time until two cumulative bites, maximum measurement time 240 minutes, listed as Picadrin) [min] | Repellent efficiency (%) per time (minutes) (2% (0.05 mg/cm^3), 30 minutes) [%] | Repellent efficiency (%) per time (minutes) (2% (0.05 mg/cm^3), 60 minutes) [%] | Repellent efficiency (%) per time (minutes) (2% (0.05 mg/cm^3), 90 minutes) [%] | Repellent efficiency (%) per time (minutes) (2% (0.05 mg/cm^3), 120 minutes) [%] | Repellent efficiency (%) per time (minutes) (2% (0.05 mg/cm^3), 150 minutes) [%] | Repellent efficiency (%) per time (minutes) (2% (0.05 mg/cm^3), 180 minutes) [%] | Repellent efficiency (%) per time (minutes) (2% (0.05 mg/cm^3), 210 minutes) [%] | Repellent efficiency (%) per time (minutes) (2% (0.05 mg/cm^3), 240 minutes) [%] | Effective repellency duration (minute) (mean ± standard deviation) (concentration 2% (0.05 mg/cm^3), time until arm bitten by two cumulative mosquitoes)
1 | CCC(C)OC(=O)N1CCCCC1CCO (stereo not drawn) [Picadirin, reference compound] | 85.0 | 85.0 | 85.0 | 80.0 | 75.0 | 72.5 | 62.5 | 47.5 | less than 30 minutes | 158 min | 158 ± 27.5 | – | – | – | – | – | – | – | – | –
2 | CCN(CC)C(=O)c1cccc(C)c1 [DEET, N,N-diethyl-m-toluamide, reference compound] | 100 | 100 | 100 | 100 | 87.5 | 81.3 | 78.1 | 71.9 | 120 min | 218 min and 218 ± 10.8 min | – | 100 | 0 | 0 | 0 | 0 | 0 | 0 | 0 | 70 min and 70 ± 10.0 min
